The values that follow come from PMC7119052 (Bioorganic & Medicinal Chemistry, 2005).

Test [1] concerns the target T1, CypA (Homo sapiens, UniProt P62937). Kind of test: SPR-based binding affinity assay. Conditions: pH 7.4.
For test [2], the target named is T1, CypA. In words: biochemical.
Test [3] deals with mouse spleen cells induced by Con A. Kind of test: Proliferation of mouse spleen cells induced by Con A. It counts as cell-based. Conditions: 72 h, read-out: Inhibitory rate (%).

T1 sequence (P62937 whole entry): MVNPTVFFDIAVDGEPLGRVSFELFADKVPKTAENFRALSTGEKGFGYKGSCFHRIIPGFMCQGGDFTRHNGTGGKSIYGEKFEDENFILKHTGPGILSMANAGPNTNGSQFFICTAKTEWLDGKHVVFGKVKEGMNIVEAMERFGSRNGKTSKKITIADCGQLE

On to `Cc1noc(NS(=O)(=O)c2ccc(NC(=O)c3cc(-c4cccc(F)c4)nc4ccccc34)cc2)c1C` [Compound 16a, 4-(2-(3-Fluorophenyl)-quinoline-4-carboxamido)-N-(3,4-dimethyl-isoxazol-5-yl) benzenesulfonamide], for which the Kd in test [1] came to 10.2 µM. In addition, the “% inhibition at 10 μM” value in test [2] was 18.0%. The compound `Cc1noc(NS(=O)(=O)c2ccc(NC(=O)c3cc(-c4ccc(Br)cc4)nc4ccccc34)cc2)c1C` [Compound 16c, 4-(2-(4-Bromophenyl)-quinoline-4-carboxamido)-N-(3,4-dimethyl-isoxazol-5-yl) benzenesulfonamide] displayed a Kd in test [1] of 4.11 µM. For the same compound, in test [2], the “% inhibition at 10 μM” value turned out to be 10.0%. The matching figures for `Cc1noc(NS(=O)(=O)c2ccc(NC(=O)c3cc(-c4ccccc4Br)nc4ccccc34)cc2)c1C` [Compound 16d, 4-(2-(2-Bromophenyl)-quinoline-4-carboxamido)-N-(3,4-dimethyl-isoxazol-5-yl) benzenesulfonamide]: 223 µM and 15.0%. For the compound `Cc1noc(NS(=O)(=O)c2ccc(NC(=O)c3cc(-c4ccncc4)nc4ccccc34)cc2)c1C` [Compound 16e, 4-(2-Pyridin-4-yl-quinoline-4-carboxamido)-N-(3,4-dimethyl-isoxazol-5-yl) benzenesulfonamide], binding in test [1] was characterised by a dissociation constant (Kd) of 10.6 µM. Besides, in test [2], the “% inhibition at 10 μM” value worked out at 40.0%. For the compound `Cc1noc(NS(=O)(=O)c2ccc(NC(=O)c3cc(-c4cccs4)nc4ccccc34)cc2)c1C` [Compound 16f, 4-(2-Thiophen-2-yl-quinoline-4-carboxamido)-N-(3,4-dimethyl-isoxazol-5-yl) benzenesulfonamide], the affinity in test [1], expressed as Kd, was 91.3 µM. Further, in test [2], the “% inhibition at 10 μM” value is given as 30.0%. For the compound `Cc1noc(NS(=O)(=O)c2ccc(NC(=O)c3cc(C4CCCCC4)nc4ccccc34)cc2)c1C` [Compound 16g, 4-(2-Cyclohexanyl-quinoline-4-carboxamido)-N-(3,4-dimethyl-isoxazol-5-yl) benzenesulfonamide], the Kd in test [1] is 1.79 µM. `Cc1noc(NS(=O)(=O)c2ccc(NC(=O)c3cc(-c4cccc(Br)c4)nc4ccc(F)cc34)cc2)c1C` [Compound 16i, 4-(2-(3-Bromophenyl)-6-fluoro-quinoline-4-carboxamido)-N-(3,4-dimethyl-isoxazol-5-yl) benzenesulfonamide] yielded a Kd in test [1] of 2.25 µM. Moreover, in test [2], the “% inhibition at 10 μM” value is on record as 32.0%.

`O=C(Nc1ccc(S(=O)(=O)Nc2cnc3ccccc3n2)cc1)c1cc(-c2cccc(Br)c2)nc2ccccc12` [Compound 16j, 4-(2-(3-Bromophenyl)-quinoline-4-carboxamido)-N-quinoxalin-2-yl benzenesulfonamide] yielded a Kd in test [1] of 3.13 µM. Besides, the “% inhibition at 10 μM” value in test [2] stood at 36.0%. In test [1], `Cc1noc(NS(=O)(=O)c2ccc(NC(=O)c3ccnc(-c4ccc(Br)cc4)c3)cc2)c1C` [Compound 16l, 4-(2-(4-Bromophenyl)-pyridine-4-carboxamido)-N-(3,4-dimethyl-isoxazol-5-yl) benzenesulfonamide] had a Kd of 89.5 µM. The same measure, in the same setting: under `Cc1noc(NS(=O)(=O)c2ccc(NC(=O)c3ccnc(-c4ccccc4)c3)cc2)c1C` [Compound 16m, 4-(2-Phenyl-pyridine-4-carboxamido)-N-(3,4-dimethyl-isoxazol-5-yl) benzenesulfonamide] stands 14.5 µM.

Compound `Cc1noc(NS(=O)(=O)c2ccc(NC(=O)c3ccnc(-c4ccc(Cl)cc4)c3)cc2)c1C` [Compound 16n, 4-(2-(4-Chlorophenyl)-pyridine-4-carboxamido)-N-(3,4-dimethyl-isoxazol-5-yl) benzenesulfonamide] came in with a dissociation constant (Kd) in test [1] of 1.86 µM. In test [1], `Cc1noc(NS(=O)(=O)c2ccc(NC(=O)c3ccnc(-c4ccc(F)cc4)c3)cc2)c1C` [Compound 16o, 4-(2-(4-Fluorophenyl)-pyridine-4-carboxamido)-N-(3,4-dimethyl-isoxazol-5-yl) benzenesulfonamide] gave a Kd of 42.4 µM. Further, in test [2], the “% inhibition at 10 μM” value turned out to be 26.0%. `Cc1ccccc1-c1cc(C(=O)Nc2ccc(S(=O)(=O)Nc3onc(C)c3C)cc2)ccn1` [Compound 16p, 4-(2-(2-Methylphenyl)-pyridine-4-carboxamido)-N-(3,4-dimethyl-isoxazol-5-yl) benzenesulfonamide] registered a Kd in test [1] of 7.61 µM. In test [1], `Cc1ccnc(NS(=O)(=O)c2ccc(NC(=O)c3ccnc(-c4ccccc4C)c3)cc2)n1` [Compound 16q, 4-(2-(2-Methylphenyl)-pyridine-4-carboxamido)-N-(4-methyl-pyrimidin-2-yl) benzenesulfonamide] yielded a dissociation constant Kd of 340 µM.

`O=C(Cc1ccc(Cl)cc1Cl)Nc1ccc(S(=O)(=O)Nc2cnc3ccccc3n2)cc1` [Compound 17a, 4-(2,4-Dichlorophenylacetamido)-N-quinoxalin-2-yl benzenesulfonamide] registered a Kd in test [1] of 37.7 µM. `O=C(Nc1ccc(S(=O)(=O)Nc2cnc3ccccc3n2)cc1)c1ccccc1` [Compound 17b, 4-Benzamido-N-quinoxalin-2-yl benzenesulfonamide] returned a Kd in test [1] of 23.4 µM. Besides, the “% inhibition at 10 μM” value in test [2] worked out at 5.6%.

Turning to `O=C(CCc1ccccc1)Nc1ccc(S(=O)(=O)Nc2cnc3ccccc3n2)cc1` [Compound 17c, 4-(3-Phenyl-propionamido)-N-quinoxalin-2-yl benzenesulfonamide], binding in test [1] was put at a Kd of 1.06 µM. On the same count and under the same terms, the result for `Cc1noc(NS(=O)(=O)c2ccc(NC(=O)Cc3ccc(Cl)cc3)cc2)c1C` [Compound 17d, 4-(4-Chlorophenylacetamido)-N-(3,4-dimethyl-isoxazol-5-yl) benzenesulfonamide] reads 0.35 µM.

Compound `COC(=O)c1cc(Cc2ccc(NCc3ccccc3)c(C(=O)OC)c2)ccc1NCc1ccccc1` [Compound 18g, 6,6′-Bis-benzylamino-3,3′-methanediyl-di-benzoic acid dimethyl ester] yielded an IC50 in test [2] of 6.23 µM. In test [3], the inhibition at 1 µM is 1.2 ± 6.41%, the inhibition at 10 µM stood at 7.46 ± 4.13% and the inhibition at 100 µM was 28.8 ± 3.39%.
